pIC50: −log10 of the molar value.
System: 994946-033-R-J1-PDC complex spheroid viability
Experiment: Anticancer human tumor 994946-033-R-J1-PDC patient-derived melanoma cell line growth inhibition [POLQ]
Conditions: for pIC50: curve of first compound; for viability, T/C: stronger effect = lower value
Method in brief: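 Complex spheroid viability model combining PDC tumour cells with endothelial (HUVEC) and MSC stromal cells. Novobiocin, ART-558 or RP6685 were tested singly and in combination with standard and investigational anticancer drugs. Each was titrated in half-log steps from near clinical Cmax, or from 10 microM where Cmax was unknown.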

[1] = second compound 0.0316 µM, first compound 0.0316 µM
[2] = second compound 0.0316 µM, first compound 0.1 µM
[3] = second compound 0.0316 µM, first compound 0.316 µM
[4] = second compound 0.0316 µM, first compound 1 µM
[5] = second compound 0.0316 µM, first compound 3.16 µM
[6] = second compound 0.0316 µM, first compound 10 µM
[7] = second compound 0.1 µM, first compound 0.0316 µM
[8] = second compound 0.1 µM, first compound 0.1 µM
[9] = second compound 0.1 µM, first compound 0.316 µM
[10] = second compound 0.1 µM, first compound 1 µM
[11] = second compound 0.1 µM, first compound 3.16 µM
[12] = second compound 0.1 µM, first compound 10 µM
[13] = second compound 0.316 µM, first compound 0.0316 µM
[14] = second compound 0.316 µM, first compound 0.1 µM
[15] = second compound 0.316 µM, first compound 0.316 µM
[16] = second compound 0.316 µM, first compound 1 µM
[17] = second compound 0.316 µM, first compound 3.16 µM
[18] = second compound 0.316 µM, first compound 10 µM
[19] = second compound 1 µM, first compound 0.0316 µM
[20] = second compound 1 µM, first compound 0.1 µM
[21] = second compound 1 µM, first compound 0.316 µM
[22] = second compound 1 µM, first compound 1 µM
[23] = second compound 1 µM, first compound 3.16 µM
[24] = second compound 1 µM, first compound 10 µM
[25] = second compound 3.16 µM, first compound 0.0316 µM
[26] = second compound 3.16 µM, first compound 0.1 µM
[27] = second compound 3.16 µM, first compound 0.316 µM
[28] = second compound 3.16 µM, first compound 1 µM
[29] = second compound 3.16 µM, first compound 3.16 µM
[30] = second compound 3.16 µM, first compound 10 µM
[31] = second compound 10 µM, first compound 0.0316 µM
[32] = second compound 10 µM, first compound 0.1 µM
[33] = second compound 10 µM, first compound 0.316 µM
[34] = second compound 10 µM, first compound 1 µM
[35] = second compound 10 µM, first compound 3.16 µM
[36] = second compound 10 µM, first compound 10 µM
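Note: spheroids exposed to drugs for 7 days.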
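Throughout, for viability, T/C: 100% = DMSO vehicle treated spheroids.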

`C#Cc1c(F)ccc2cc(O)cc(-c3ncc4c(N5CC6CCC(C5)N6)nc(OCC56CCCN5CC(F)C6)nc4c3F)c12` (centres undefined) + Nc1ccc(C#CCN(C(=O)Cc2ncc(C(F)(F)F)cc2C(F)(F)F)c2ccc(F)cc2)nn1 showed a pIC50 (second compound 0.0316 µM) of 5.37, a pIC50 (second compound 0.1 µM) of 5.26 and a pIC50 (second compound 0.316 µM) of 5.22. For the same compound, the pIC50 (second compound 1 µM) was 5.44, the pIC50 (second compound 3.16 µM) was 5.27 and the pIC50 (second compound 10 µM) was 5.29. The viability, T/C [1] was 101%, the viability, T/C [2] was 109% and the viability, T/C [3] was 91.9%. For the same compound, the viability, T/C [4] was 82.5%, the viability, T/C [5] was 67.2% and the viability, T/C [6] was 11.7%. It also gave a viability, T/C [7] of 90.2%, a viability, T/C [8] of 88.9% and a viability, T/C [9] of 97.8%. The viability, T/C [10] was 74.1%, the viability, T/C [11] was 81% and the viability, T/C [12] was 19.1%. For the same compound, the viability, T/C [13] was 100%, the viability, T/C [14] was 84.7% and the viability, T/C [15] was 74.8%. It also gave a viability, T/C [16] of 96.2%, a viability, T/C [17] of 84.1% and a viability, T/C [18] of 22.3%. It also gave a viability, T/C [19] of 80.6%, a viability, T/C [20] of 89.8% and a viability, T/C [21] of 90.1%. The viability, T/C [22] was 66.5%, the viability, T/C [23] was 59.8% and the viability, T/C [24] was 5.38%. For the same compound, the viability, T/C [25] was 74.4%, the viability, T/C [26] was 85.1% and the viability, T/C [27] was 102%. For the same compound, the viability, T/C [28] was 79.1%, the viability, T/C [29] was 81.1% and the viability, T/C [30] was 13.7%. For the same compound, the viability, T/C [31] was 80%, the viability, T/C [32] was 106% and the viability, T/C [33] was 76.2%. For the same compound, the viability, T/C [34] was 112%, the viability, T/C [35] was 71% and the viability, T/C [36] was 20.3%.
With `CC1COCCN1c1cc(-c2ccnn2C)c2ccnc(-c3ccn[nH]3)c2n1` (centres undefined) + Nc1ccc(C#CCN(C(=O)Cc2ncc(C(F)(F)F)cc2C(F)(F)F)c2ccc(F)cc2)nn1 the pIC50 (second compound 0.0316 µM) was 7.19, the pIC50 (second compound 0.1 µM) was 7.14 and the pIC50 (second compound 0.316 µM) was 7.14. It also gave a pIC50 (second compound 1 µM) of 7.13, a pIC50 (second compound 3.16 µM) of 7.21 and a pIC50 (second compound 10 µM) of 7.09. For the same compound, the viability, T/C [1] was 65.8%, the viability, T/C [2] was 41.7% and the viability, T/C [3] was 21.8%. It also gave a viability, T/C [4] of 29.1%, a viability, T/C [5] of 19.8% and a viability, T/C [6] of 15.4%. The viability, T/C [7] was 86.3%, the viability, T/C [8] was 31.8% and the viability, T/C [9] was 29.6%. For the same compound, the viability, T/C [10] was 26%, the viability, T/C [11] was 16.3% and the viability, T/C [12] was 9.84%. The viability, T/C [13] was 70.5%, the viability, T/C [14] was 40.5% and the viability, T/C [15] was 26.1%. It also gave a viability, T/C [16] of 23.6%, a viability, T/C [17] of 17.5% and a viability, T/C [18] of 9.71%. It also gave a viability, T/C [19] of 75.5%, a viability, T/C [20] of 33.7% and a viability, T/C [21] of 32.9%. The viability, T/C [22] was 33.6%, the viability, T/C [23] was 15.4% and the viability, T/C [24] was 14.1%. The viability, T/C [25] was 60.7%, the viability, T/C [26] was 42.4% and the viability, T/C [27] was 22.1%. It also gave a viability, T/C [28] of 21.1%, a viability, T/C [29] of 25.6% and a viability, T/C [30] of 14.1%. For the same compound, the viability, T/C [31] was 76.1%, the viability, T/C [32] was 44% and the viability, T/C [33] was 21.1%. It also gave a viability, T/C [34] of 21.7%, a viability, T/C [35] of 21.6% and a viability, T/C [36] of 15.8%.

— PubChem BioAssay AID1963827 (Molecular Pharmacology Branch, DTP, NCI, 2024)
